Assay results as given in US20220152048A1, “Botanical Extracts and Compounds from Castanea Plants and Methods of Use” (Emory University, priority 2019, published 2022).
In brackets after ≈: the same amount, converted by molar mass.

Experiments:
S. aureus = assay: Growth (optical density) of S. aureus; format: cell-based, Staphylococcus aureus; conditions: at the IC50 concentration of 8 μg/mL
Experimental: (§1) Fractions were tested for quorum quenching activity against all four agr types agr P3-YFP reporter strains AH1677 (type I), AH430 (type II), AH1747 (type III), and AH1872 (type IV). Sample stock solutions were dissolved in DMSO at a concentration of 2 mg/mL. Overnight cultures of reporter strains that were grown in TSB supplemented with chloramphenicol (Cam) were inoculated into fresh TSB containing Cam to achieve a working culture OD of 0.0006. Working culture was added to 96-well microtiter plates (Costar 3603) as was sample in order to achieve a final well volume of 200 μL. Mock vehicle (DMSO) treatments were included for each reporter strain. Microtiter plates were incubated at 37° C. with shaking (1250 rpm) in a Stuart SI505 incubator (Bibby Scientific, Burlington, N.J.) with a humidified chamber. Fluorescence (top reading, 493 nm excitation, 535 nm emission, gain 60) and optical density (OD) readings at 600 nm were recorded at 18 h using a Tecan Systems (San Jose, Calif.) Infinite M200 plate reader.

[1] = system: Staphylococcus aureus reporter strain of agr I expression (AH1677); assay: agr I reporter strain AH1677 dose range (FIG. 3); format: cell-based; conditions: strain AH1677, fluorescence (FLD) of the gene reporter
Experimental: Strain AH1677 was treated with a range of doses of SF6, SF7, and a combination of the two. OD refers to growth, while FLD refers to fluorescence of the gene reporter. […] The combined effects of SF6 and SF7 are additive; a dose 4 μg/mL SF6+4 μg/mL SF7 has the same effect as an 8 μg/mL dose of either.
as §1

[2] = system: Staphylococcus aureus reporter strains of agr (types I-IV: AH1677, AH430, AH1747, AH1872); assay: Quorum quenching assay with agr P3-YFP reporter strains (fluorescence); format: cell-based; conditions: read-out: IC50 for inhibition of fluorescence across agr reporter strains
Description: Hydroperoxy-cycloartanes were isolated from the methanolic extract of the leaves of Castanea sativa, a substantial, long-lived deciduous tree that produces an edible seed, the chestnut. 224C-F2c-PF42-SF6 is a mixture of a cycloartane with a hydroperoxy group at the terminus of its alkyl chain and a carboxylic acid and methyl group replacing the gem-dimethyl group (1a) and a cycloartane with a terminal alkene and carboxylic acid in the S configuration at C24 (1b). 224C-F2c-PF42-SF7 is a cycloartane with a terminal alkene and carboxylic acid in the R configuration at C24 (2). […] The compounds 2 and SF6 were evaluated for the ability to inhibit fluorescence of Staphylococcus aureus reporter strains of agr, the main gene regulating quorum sensing. Additionally, 2 and SF6 were evaluated for cytotoxicity against human immortalized keratinocytes (HaCaT).
After eluting from the column, 224C-F2 was split into parts a-d. […] A screen against S. aureus reporter strains of AIP-induced agr:P3 activation representing all four agr subtypes functioned as a preliminary readout of quorum sensing inhibition and the bioassay which guided fractionation. […]

C=C(C)[C@H](CC[C@H](C)[C@@H]1CC[C@]2(C)[C@H]3[C@H](O)C[C@@H]4[C@@](C)(C(=O)O)[C@H](O)CC[C@]45C[C@]35CC[C@@]12C)OO [Compound 2]
growth inhibitory effects on S. aureus (S. aureus): no growth inhibitory effects | activity in agr I reporter strain as compared to parent fraction and positive control 224C-F2c [1]: slightly reduced | IC50 [2]: 8 µg/mL (≈ 15.9 µM)
